The numbers were not newly measured in patent publication EP3731827B1, “ORAL PHARMACEUTICAL COMPOSITION COMPRISING POSACONAZOLE” (Sanovel Ilac Sanayi ve Ticaret A.S., priority 2017, dated 2019), which cites them from elsewhere.

Read-outs that look alike come from different tables or passages of the source.

For the molecule `CC[C@@H]([C@H](C)O)n1ncn(-c2ccc(N3CCN(c4ccc(OC[C@@H]5CO[C@@](Cn6cncn6)(c6ccc(F)cc6F)C5)cc4)CC3)cc2)c1=O` [posaconazole, 4-[4-[4-[4-[[(3R,5R)-5-(2,4-difluorophenyl)-5-(1,2,4-triazol-1-ylmethyl)oxolan-3-yl]methoxy]phenyl]piperazin-1-yl]phenyl]-2-[(2S,3S)-2-hydroxypentan-3-yl]-1,2,4-triazol-3-one], the solubility result is “less than 1 µg/ml” (at pH 6.4 or higher) and “about 0.8 mg/ml” (in the stomach).
